What was measured:
Assay type in all cases: in vivo
[1] = tested on: Alopecurus myosuroides; assay: Pre-emergence herbicidal activity against ALOMY; conditions: dosage 80 g/ha, scored visually after about 3 weeks vs untreated controls (100% = plants have died, 0% = like control plants); for pest or weed control at 80 g/ha: Alopecurus myosuroides, 504 h
From the text: 1. Pre-Emergence Herbicidal Action and Crop Plant Compatibility Seeds of monocotyledonous and dicotyledonous weed plants and crop plants are placed in plastic or wood fiber pots and covered with soil. The compounds of the invention, formulated in the form of wettable powders (WP) or as emulsion concentrates (EC), are then applied onto the surface of the covering soil as aqueous suspension or emulsion with addition of 0.5% additive at a water application rate of 600 l/ha (converted). After the treatment, the pots are placed in a greenhouse and kept under good growth conditions for the trial plants. After about 3 weeks, the effect of the preparations is scored visually in comparison with untreated controls as percentages. For example, 100% activity=the plants have died, 0% activity=like control plants. ABUTH: Abutilon theophrasti ALOMY: Alopecurus myosuroides

[2] = tested on: Amaranthus retroflexus; assay: Pre-emergence herbicidal activity against AMARE; conditions: dosage 80 g/ha; for pest or weed control at 80 g/ha: Amaranthus retroflexus, 504 h
Summary of the method: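 Seeds sown in pots, covered with soil; WP or EC formulations sprayed onto soil surface as aqueous suspension/emulsion with 0.5% additive at 600 l/ha water. Pots kept in greenhouse ~3 weeks, then effect scored visually versus untreated controls as % (100% = plants dead, 0% = like control).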

[3] = tested on: Setaria viridis; assay: Post-emergence herbicidal activity against SETVI; conditions: dosage 320 g/ha, rated about 3 weeks after treatment; for pest or weed control at 320 g/ha: Setaria viridis, 504 h
Summary of the method: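 Greenhouse weeds in sandy loam were sprayed at the one-leaf stage, 2–3 weeks after sowing, with WP or EC formulations plus 0.5% additive at 600 l/ha water. About 3 weeks later, damage was rated visually against untreated controls, where 100% means plants dead and 0% means like control.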

[4] = tested on: Pharbitis purpurea; assay: Post-emergence herbicidal activity against PHBPU; conditions: dosage 320 g/ha, rated about 3 weeks after treatment; for pest or weed control at 320 g/ha: Ipomoea purpurea, 504 h
Summary of the method: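 Greenhouse-grown plants sprayed post-emergence at the one-leaf stage, 2 to 3 weeks after sowing, with WP or EC formulations plus 0.5% additive at 600 l/ha water. Activity rated visually after about 3 weeks versus untreated controls (100% = plants dead, 0% = like control).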

[5] = tested on: Viola tricolor; assay: Post-emergence herbicidal activity against VIOTR; conditions: dosage 320 g/ha, rated about 3 weeks after treatment; for pest or weed control at 320 g/ha: Viola tricolor, 504 h
Summary of the method: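 Greenhouse plants in sandy loam treated at one-leaf stage, 2 to 3 weeks after sowing, by spraying WP or EC formulations with 0.5% additive at 600 l/ha water. Activity rated visually after about 3 weeks versus untreated controls, 100% = plants dead, 0% = like control.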

[6] = tested on: Hordeum murinum; assay: Post-emergence herbicidal activity against HORMU; conditions: dosage 320 g/ha; for pest or weed control at 320 g/ha: Hordeum murinum, 504 h
Summary of the method: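 Greenhouse pot plants sprayed post-emergence at one-leaf stage (2-3 weeks after sowing) with WP or EC formulations, 0.5% additive, 600 l/ha water. Visual rating about 3 weeks later versus untreated controls: 100% = plants dead, 0% = like control.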

| Compound | Pre-emergence herbicidal activity against ALOMY in % [1] | Pre-emergence herbicidal activity against AMARE in % [2] | pest or weed control at 320 g/ha [3] | pest or weed control at 320 g/ha [4] | pest or weed control at 320 g/ha [5] | pest or weed control at 320 g/ha [6] | pest or weed control at 80 g/ha [1] | pest or weed control at 80 g/ha [2] | Post-emergence herbicidal activity against SETVI in % [3] | Post-emergence herbicidal activity against PHBPU in % [4] | Post-emergence herbicidal activity against VIOTR in % [5] | Post-emergence herbicidal activity against HORMU in % [6] |
| --- | --- | --- | --- | --- | --- | --- | --- | --- | --- | --- | --- | --- |
| C=C[C@]1(C(=O)N[C@H]2CO[C@@H](C(=O)OC)C2)CC(c2cc(F)cc(F)c2)=NO1 (single isomer, unassigned) [I-11] | 100% | 100% | 90% | 90% | 90% | 100% | – | – | – | – | – | – |
| C=C[C@]1(C(=O)N[C@H]2CO[C@@H](C(=O)OC)C2)CC(c2cc(F)cc(F)c2)=NO1 (single isomer, unassigned) [I-12] | – | – | – | – | – | – | 100% | 100% | 90% | 90% | 100% | 90% |
| CC(C)OC(=O)C1CC(NC(=O)C2(C)CC(c3cc(F)cc(F)c3)=NO2)CO1 (stereo not drawn) [I-44] | 100% | 90% | – | – | – | – | – | – | 90% | 90% | 90% | 100% |
| COC(=O)C1=C[C@@H](NC(=O)C2(C)CC(c3cccc(F)c3)=NO2)CO1 (stereo partly drawn) [I-46, methyl (3R)-3-[[3-(3-fluorophenyl)-5-methyl-4H-isoxazole-5-carbonyl]amino]-2,3-dihydrofuran-5-carboxylate] | – | – | 80% | 90% | 90% | 100% | 100% | 90% | – | – | – | – |
